For eight compounds, IC50 results are on record in ChEMBL document CHEMBL2203172, “Synthesis of chiral hydroxylated enones as potential anti-tumor agents” (Bioorg Med Chem Lett, 2012).

Each structure is given as a SMILES string.

In assay [1] the test system is HL-60. Nature of the assay: Cytotoxicity against human HL60 cells. The class given is functional, cell-based.
Assay [2] concerns WRL68. Nature of the assay: Cytotoxicity against human WRL68 cells. Type of assay: cell-based.
The subject of assay [3] is HepG2. In words: Cytotoxicity against human HepG2 cells. The class given is functional, cell-based.

Usually IC50 stands for the concentration needed to halve the response being measured. `CO[C@H]1C=C(COC(C)=O)C(=O)[C@H](O)[C@H]1O`: the values for the IC50 in assay [1], in assay [2] and in assay [3] were more than 50 µM, more than 200 µM and more than 50 µM, respectively.
Turning to `CCCCCCCO[C@H]1C=C(COC(C)=O)C(=O)[C@H](O)[C@H]1O`, the IC50 was 39.8 µM in assay [1], 152 µM in assay [2] and more than 50 µM in assay [3].
For `CC(=O)OCC1=C[C@H](OCc2ccc3ccccc3c2)[C@H](O)[C@@H](O)C1=O`, in that order: more than 50 µM, more than 200 µM and more than 50 µM.
On to `CC(=O)OCC1=C[C@H](OCc2ccc(-c3ccccc3)cc2)[C@H](O)[C@@H](O)C1=O`, for which 71.3 µM corresponded to half-maximal inhibition in assay [2] (IC50).
Turning to `CCCO[C@H]1C=C(COC(C)=O)C(=O)[C@H](O)[C@H]1O`, the IC50 in assay [1] was determined as 10.1 µM; in assay [2], 191 µM; in assay [3], 33.6 µM.
With `CCCCCO[C@H]1C=C(COC(C)=O)C(=O)[C@H](O)[C@H]1O`, the IC50 in assay [1] is 3.1 µM; in assay [2] it was 169 µM; in assay [3], 16.1 µM.
As to `CCCCCO[C@@H]1C=C(COC(C)=O)C(=O)[C@H](O)[C@H]1O`, the IC50 in assay [1] amounted to 2.6 µM; in assay [2], 48.3 µM; in assay [3], 10.1 µM.
Consider `OCC1=C[C@H](O)[C@H](O)[C@@H](O)[C@@H]1O` [STREPTOL], for which the IC50 is more than 50 µM in assay [1], more than 200 µM in assay [2] and more than 50 µM in assay [3].
